The test system of assay [1] is S. aureus. Kind of assay: disk-diffusion assay of penicillin-loaded polymers. Format: cell-based. As to conditions: Staphylococcus aureus. How it is done: FIG. 8B is a 3-D plot of inhibition zones of penicillin, penicillin loaded cobaltocenium-containing polymers (PCo-Peni), and penicillin loaded cobaltocenium-boronic acid-containing copolymers (PCo-PPB-Peni) against six strains of bacteria using different amounts of penicillin (A: 5 μg penicillin-G alone, B: PCo-Peni with 5 μg penicillin-G, C: PCo-PPB-Peni with 5 μg penicillin-G, D: 10 μg penicillin-G, E: PCo-Peni with 10 μg penicillin-G, F: PCo-PPB-Peni with 10 μg penicillin-G).
For the bacteria, a single colony was inoculated in 30 mL tryptic soy broth (TSB) at 37° C. for 24 hours, shaking at 190 rpm/min. All bacteria were grown to an optical density of about 1.00 (OD600=1.00) for further use. To conduct the agar disk-diffusion assays, actively-growing cultures of each bacterial strain on mannitol salt agar (MSA) were inoculated on tryptic soy broth (TSB) agar plates. The bacterial growth culture (cell concentrations were 1.0×10^6 CFU/mL) was diluted from 10 μL to 1 mL in tryptic soy broth (TSB) and 100 μL was spread on TSB agar plates to form a bacterial lawn covering the plate surface. Then, 6 mm (diameter) filter discs were added to the plate surface, aqueous cobaltocenium-boronic acid-containing copolymers (PCo-PPB) at different concentrations were added to disks, and the plates were incubated at 28° C. for 18 h. […]

The test system of assay [2] is six strains of bacteria (S. aureus, E. faecalis, E. coli, P. vulgaris, P. aeruginosa and K. pneumoniae). The experiment in a line: LIVE/DEAD bacteria viability assay by CSLM. As to conditions: 18-hour incubation at 37° C.; penicillin-G 5, PCo-PPB 11 μg, PCo-PPB-Peni 16 μg per 1 mL. Format: cell-based.
Protocol: One (1) mL of active bacterial stock of various strains was introduced to 5 penicillin-G, 11 μg cobaltocenium-boronic acid-containing copolymer, and 16 μg penicillin-loaded cobaltocenium-boronic acid-containing copolymers (penicillin-G weight: 5 m), respectively. An untreated cell suspension was used as the control. Following 18-hour incubation at 37° C., 1 μL LIVE/DEAD BacLight (Bacterial Viability Kit; INVITROGEN INC.®) was added to the incubation solution. After incubation for 15 minutes, cells were imaged using a LEICA TCS SP5® Laser Scanning Confocal Microscope with a 63X oil immersion lens.

Compound `CC1(C)S[C@@H]2[C@H](NC(=O)Cc3ccccc3)C(=O)N2[C@H]1C(=O)O` [penicillin-G] showed a zone of inhibition at 5 µg/disc in assay [1] (5 μg penicillin-G) of 7 mm. In assay [1] (10 μg penicillin-G), this compound had a zone of inhibition at 10 µg/disc of 14.5 mm. In addition, the “killing of bacteria (LIVE/DEAD BacLight)” value in assay [2] is recorded as “not effective at killing bacteria”.

For the origin of these results see patent publication US20180250328A1, “Metallocene-boronic acid-containing compounds and copolymers as antimicrobial agents” (University of South Carolina, priority 2017, published 2018).
